From US20160082036A1, “HYDROXYALKYL STARCH FOR THE TREATMENT OF CANCERS BY REDUCTION OF TUMOR GROWTH RATES” (Fresenius Kabi Deutschland GmbH, priority 2012, published 2016) come the findings set out here.

“Also recorded” adds a separate entry of the source.

The nature of series [1]: Example 6.1: body weight of LXFL 529 tumor-bearing mice. As to conditions: FIG. 14. The class given is in vivo, NMRI nu/nu mice. As for the experimental part: The application volume was 20 ml/kg mouse body weight for saline and Voluven® 10% and 10 ml/kg of the 1 mg/ml solution for Everolimus (administered final dose 10 mg/kg). The route of administration was by i.v. injection into the tail vein for saline and Voluven® 10%. 10 mg/kg of body weight Everolimus was administered p.o.

The nature of series [2]: Example 6.2: body weight of LXFE 397 tumor-bearing mice. The conditions noted are these: FIG. 16. The class given is in vivo, NMRI nu/nu mice. As for the experimental part:
The application volume was 20 ml/kg mouse body weight for saline and Voluven® 10% (i.v.) and 100 mg/kg for Capecitabine (p.o.).

Series [3] deals with human prostate carcinoma cell line PC-3. In words: Example 4: PC-3 xenograft tumor growth in nude mice. The conditions noted are these: 3 week observation period; FIG. 5. The class given is in vivo. The procedure: In another study which was performed in analogy to the study described above, the effect of “Voluven 10%” was tested on a different cancer cell line, i.e. on prostate cancer cell line PC3.
The rapidly growing human prostate carcinoma cell line PC-3 was used as xenograft tumor model in nude mice to test the efficacy of Voluven® 10% on reduction of tumour growth rates. Paclitaxel was employed as positive control and saline as negative control.
• Strain: NMRI nude (homozygous)-Rj:NMRI-nu • Sex: Female • Supplier: Elevage Janvier, Route des Chènes Secs, 53940 Le Genest St. Isle, France • Health status: SPF • Age at delivery: 5-6 weeks • Acclimatization: At least 6 days […]
Tumor measurement: The tumor growth was measured three times a week (e.g. Monday, Wednesday, and Friday) beginning with study day 3 (tumor measurable at size approx. 3 mm in diameter). Tumor volumes were calculated according to V=(length×(width)^2)/2. […]
To prepare the paclitaxel solution at a concentration of 2.5 mg/ml the paclitaxel stock solution (6 mg/ml) was diluted with 0.9% isotonic saline. […] Saline and Voluven® 10% were provided as ready-to-use formulations. […]
Statistical analyses of data were performed for each group separately. Group medians were calculated for body weights and tumor measurements for each investigation time. […] For the evaluation of tumor volume/area and T/C values were calculated using Microsoft Excel 7.0.

Turning to `CO[C@H]1C[C@@H]2CC[C@@H](C)[C@@](O)(O2)C(=O)C(=O)N2CCCC[C@H]2C(=O)O[C@H]([C@H](C)C[C@@H]2CC[C@@H](OCCO)[C@H](OC)C2)CC(=O)[C@H](C)/C=C(\C)[C@@H](O)[C@@H](OC)C(=O)[C@H](C)C[C@H](C)/C=C/C=C/C=C/1C` [Everolimus], the “body weight (in words)” value in series [1] is “slight reduction”. Turning to `CCCCCOC(=O)Nc1nc(=O)n([C@@H]2O[C@H](C)[C@@H](O)[C@H]2O)cc1F` [Capecitabine], the “body weight (in words)” value in series [2] is on record as “not reduced”. For the compound `CC(=O)O[C@H]1C(=O)[C@@]2(C)[C@H]([C@H](OC(=O)c3ccccc3)[C@]3(O)C[C@H](OC(=O)[C@H](O)[C@@H](NC(=O)c4ccccc4)c4ccccc4)C(C)=C1C3(C)C)[C@]1(OC(C)=O)CO[C@@H]1C[C@@H]2O` [paclitaxel, Paclitaxel], the “effect on tumor volume (in words)” value in series [3] is recorded as “stable tumour size or reduced the tumor volume; also recorded: decrease of the initial tumor volume”.
